Results taken from publication PMC9898036, “VIP152 is a selective CDK9 inhibitor with pre-clinical in vitro and in vivo efficacy in chronic lymphocytic leukemia” (Leukemia, 2022).
Like-named read-outs stand apart in the source and are kept apart here.

Legend:
Assay in all cases: DiscoverX KINOMEscan kinase profiling (468 assays)
Format in all cases: binding
[1] = biological target: human kinome (Homo sapiens, UniProt P11802); settings: 100 nM, read-out: Percent Control
Procedure, shortened: (§1)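 VIP152 was run in DMSO, alongside a DMSO control. Readout was qPCR of DNA-tagged kinase still bound to bead-immobilized biotinylated kinase ligands after compound competition.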

[2] = biological target: human kinome (Homo sapiens, UniProt P42345); settings: MTOR; 100 nM; read-out: Percent Control
Procedure, shortened: as §1

[3] = biological target: human kinome (Homo sapiens, UniProt P42336, E542K); settings: read-out: Percent Control
Procedure, shortened: as §1

[4] = biological target: human kinome (Homo sapiens, UniProt P52564); settings: MEK6 (Entrez MAP2K6); 100 nM; read-out: Percent Control
Procedure, shortened: as §1

[5] = biological target: human kinome (Homo sapiens, UniProt P35968); settings: kinase VEGFR2 (Entrez KDR); compound concentration 1000 nM; read-out: Percent Control
Procedure, shortened: as §1

[6] = biological target: human kinome (Homo sapiens, UniProt Q15303); settings: ERBB4; 100 nM; read-out: Percent Control
Procedure, shortened: as §1

[7] = biological target: human kinome (Homo sapiens, UniProt Q9UK32); settings: compound concentration 1000 nM, read-out: Percent Control
Procedure, shortened: as §1

[8] = biological target: human kinome (Homo sapiens, UniProt P28482); settings: ERK2 (Entrez MAPK1); 100 nM; read-out: Percent Control
Procedure, shortened: as §1

[9] = biological target: human kinome (Homo sapiens, UniProt Q6XUX3); settings: kinase RIPK5 (Entrez DSTYK); compound concentration 1000 nM; read-out: Percent Control
Procedure, shortened: as §1

[10] = biological target: human kinome (Homo sapiens, UniProt Q07912); settings: kinase TNK2 (Entrez TNK2); compound concentration 1000 nM; read-out: Percent Control
Procedure, shortened: as §1

[11] = biological target: human kinome (Homo sapiens, UniProt P49760); settings: CLK2; 100 nM; read-out: Percent Control
Procedure, shortened: as §1

[12] = biological target: human kinome (Homo sapiens, UniProt Q14289); settings: read-out: Percent Control
Procedure, shortened: as §1

[13] = biological target: human kinome (Homo sapiens, UniProt Q9UEE5); settings: DRAK1 (Entrez STK17A); 100 nM; read-out: Percent Control
Procedure, shortened: as §1

[14] = biological target: human kinome (Homo sapiens, UniProt Q9BXA7); settings: kinase TSSK1B (Entrez TSSK1B); compound concentration 1000 nM; read-out: Percent Control
Procedure, shortened: as §1

[15] = biological target: human kinome (Homo sapiens, UniProt P07949, V804L); settings: kinase RET(V804L) (Entrez RET); compound concentration 1000 nM; read-out: Percent Control
Procedure, shortened: as §1

[16] = biological target: human kinome (Homo sapiens, UniProt O95382); settings: ASK2 (Entrez MAP3K6); 100 nM; read-out: Percent Control
Procedure, shortened: as §1

[17] = biological target: human kinome (Homo sapiens, UniProt P78362); settings: kinase SRPK2 (Entrez SRPK2); compound concentration 1000 nM; read-out: Percent Control
Procedure, shortened: as §1

[18] = biological target: human kinome (Homo sapiens, UniProt Q9UF33); settings: EPHA6; 100 nM; read-out: Percent Control
Procedure, shortened: as §1

[19] = biological target: human kinome (Homo sapiens, UniProt Q05655); settings: read-out: Percent Control
Procedure, shortened: as §1

[20] = biological target: human kinome (Homo sapiens, UniProt Q96D53); settings: ADCK4; 100 nM; read-out: Percent Control
Procedure, shortened: as §1

[21] = biological target: human kinome (Homo sapiens, UniProt Q8N568); settings: DCAMKL2 (Entrez DCLK2); 100 nM; read-out: Percent Control
Procedure, shortened: as §1

[22] = biological target: human kinome (Homo sapiens, UniProt P06239); settings: LCK; 100 nM; read-out: Percent Control
Procedure, shortened: as §1

[23] = biological target: human kinome (Homo sapiens, UniProt Q8TD19); settings: read-out: Percent Control
Procedure, shortened: as §1

[24] = biological target: human kinome (Homo sapiens, UniProt Q9NRP7); settings: kinase STK36 (Entrez STK36); compound concentration 1000 nM; read-out: Percent Control
Procedure, shortened: as §1

[25] = biological target: human kinome (Homo sapiens, UniProt Q86Y07); settings: kinase VRK2 (Entrez VRK2); compound concentration 1000 nM; read-out: Percent Control
Procedure, shortened: as §1

[26] = biological target: human kinome (Homo sapiens, UniProt Q9NYL2); settings: kinase ZAK (Entrez ZAK); compound concentration 1000 nM; read-out: Percent Control
Procedure, shortened: as §1

[27] = biological target: human kinome (Homo sapiens, UniProt Q7KZI7); settings: MARK2; 100 nM; read-out: Percent Control
Procedure, shortened: as §1

[28] = biological target: human kinome (Homo sapiens, UniProt Q9Y4K4); settings: MAP4K5; 100 nM; read-out: Percent Control
Procedure, shortened: as §1

[29] = biological target: human kinome (Homo sapiens, UniProt Q9Y2U5); settings: MAP3K2; 100 nM; read-out: Percent Control
Procedure, shortened: as §1

human kinome (Homo sapiens, UniProt P11802), sequence (P11802 whole entry): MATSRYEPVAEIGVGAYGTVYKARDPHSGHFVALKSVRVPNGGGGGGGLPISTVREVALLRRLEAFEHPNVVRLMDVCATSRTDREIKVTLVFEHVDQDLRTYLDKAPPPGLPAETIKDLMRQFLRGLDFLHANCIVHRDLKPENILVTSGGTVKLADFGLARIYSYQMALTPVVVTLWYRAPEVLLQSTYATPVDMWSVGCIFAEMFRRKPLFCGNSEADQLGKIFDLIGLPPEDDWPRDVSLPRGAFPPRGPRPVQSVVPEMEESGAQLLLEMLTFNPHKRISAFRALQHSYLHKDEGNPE
human kinome (Homo sapiens, UniProt Q9UK32), sequence (Q9UK32 whole entry): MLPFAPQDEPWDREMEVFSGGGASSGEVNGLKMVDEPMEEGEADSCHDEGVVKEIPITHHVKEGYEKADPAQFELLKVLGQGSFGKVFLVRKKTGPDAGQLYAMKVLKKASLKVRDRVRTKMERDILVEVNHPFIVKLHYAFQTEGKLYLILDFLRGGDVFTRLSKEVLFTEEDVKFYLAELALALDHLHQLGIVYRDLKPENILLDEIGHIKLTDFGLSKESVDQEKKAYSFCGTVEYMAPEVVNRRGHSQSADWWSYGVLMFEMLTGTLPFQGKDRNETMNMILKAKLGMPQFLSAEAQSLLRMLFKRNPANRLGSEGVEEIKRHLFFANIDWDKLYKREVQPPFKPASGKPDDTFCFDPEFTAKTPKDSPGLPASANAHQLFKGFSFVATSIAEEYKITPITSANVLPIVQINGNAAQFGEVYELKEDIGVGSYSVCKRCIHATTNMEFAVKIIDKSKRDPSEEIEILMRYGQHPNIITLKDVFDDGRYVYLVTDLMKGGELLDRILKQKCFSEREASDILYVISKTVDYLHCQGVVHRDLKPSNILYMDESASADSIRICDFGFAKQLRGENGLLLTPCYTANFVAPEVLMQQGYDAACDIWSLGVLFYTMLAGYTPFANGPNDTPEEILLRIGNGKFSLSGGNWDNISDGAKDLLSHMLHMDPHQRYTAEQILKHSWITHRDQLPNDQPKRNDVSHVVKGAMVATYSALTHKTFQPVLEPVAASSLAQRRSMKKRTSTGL
human kinome (Homo sapiens, UniProt Q14289), sequence (Q14289 whole entry): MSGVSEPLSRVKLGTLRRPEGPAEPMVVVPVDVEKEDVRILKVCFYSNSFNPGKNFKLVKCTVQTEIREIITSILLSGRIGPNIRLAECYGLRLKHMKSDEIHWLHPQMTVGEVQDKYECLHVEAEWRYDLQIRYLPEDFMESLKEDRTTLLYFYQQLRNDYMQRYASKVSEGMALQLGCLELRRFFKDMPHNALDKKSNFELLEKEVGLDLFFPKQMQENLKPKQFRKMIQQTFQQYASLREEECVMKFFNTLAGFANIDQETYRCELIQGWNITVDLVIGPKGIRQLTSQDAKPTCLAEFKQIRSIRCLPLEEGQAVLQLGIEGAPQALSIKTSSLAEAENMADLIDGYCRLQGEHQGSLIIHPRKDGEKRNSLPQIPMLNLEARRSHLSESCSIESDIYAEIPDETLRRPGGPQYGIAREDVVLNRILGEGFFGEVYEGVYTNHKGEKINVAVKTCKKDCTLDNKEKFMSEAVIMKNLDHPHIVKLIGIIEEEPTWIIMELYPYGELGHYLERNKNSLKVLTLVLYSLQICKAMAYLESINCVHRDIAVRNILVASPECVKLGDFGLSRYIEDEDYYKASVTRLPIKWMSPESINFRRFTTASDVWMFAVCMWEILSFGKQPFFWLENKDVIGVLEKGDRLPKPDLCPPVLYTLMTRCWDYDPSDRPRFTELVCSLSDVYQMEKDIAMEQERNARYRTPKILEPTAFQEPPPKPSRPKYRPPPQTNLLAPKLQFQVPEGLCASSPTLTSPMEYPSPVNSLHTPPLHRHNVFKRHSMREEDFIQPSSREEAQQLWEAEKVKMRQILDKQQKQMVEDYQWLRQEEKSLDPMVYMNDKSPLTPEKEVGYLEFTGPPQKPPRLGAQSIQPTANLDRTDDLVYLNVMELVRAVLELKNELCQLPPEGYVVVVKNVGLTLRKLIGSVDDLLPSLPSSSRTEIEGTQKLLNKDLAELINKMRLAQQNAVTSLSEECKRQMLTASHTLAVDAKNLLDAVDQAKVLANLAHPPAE
human kinome (Homo sapiens, UniProt Q05655), sequence (Q05655 whole entry): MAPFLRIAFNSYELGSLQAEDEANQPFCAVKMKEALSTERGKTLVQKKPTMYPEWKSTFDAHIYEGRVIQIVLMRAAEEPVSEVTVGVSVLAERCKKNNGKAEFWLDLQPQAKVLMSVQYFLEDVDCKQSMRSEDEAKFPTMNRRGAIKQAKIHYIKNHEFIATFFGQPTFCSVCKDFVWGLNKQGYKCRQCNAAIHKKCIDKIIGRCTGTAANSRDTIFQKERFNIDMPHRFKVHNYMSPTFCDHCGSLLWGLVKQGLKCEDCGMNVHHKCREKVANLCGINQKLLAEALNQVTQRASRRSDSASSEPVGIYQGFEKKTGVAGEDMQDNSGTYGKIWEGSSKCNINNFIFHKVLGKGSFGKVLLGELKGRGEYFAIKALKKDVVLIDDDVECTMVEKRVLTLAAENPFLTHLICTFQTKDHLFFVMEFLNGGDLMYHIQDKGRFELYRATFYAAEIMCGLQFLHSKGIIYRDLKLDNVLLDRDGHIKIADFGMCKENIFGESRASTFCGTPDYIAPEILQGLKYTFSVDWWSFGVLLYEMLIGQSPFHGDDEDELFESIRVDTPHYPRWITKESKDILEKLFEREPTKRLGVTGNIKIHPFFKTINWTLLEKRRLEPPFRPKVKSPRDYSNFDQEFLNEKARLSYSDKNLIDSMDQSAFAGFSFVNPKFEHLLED
human kinome (Homo sapiens, UniProt Q8TD19), sequence (Q8TD19 whole entry): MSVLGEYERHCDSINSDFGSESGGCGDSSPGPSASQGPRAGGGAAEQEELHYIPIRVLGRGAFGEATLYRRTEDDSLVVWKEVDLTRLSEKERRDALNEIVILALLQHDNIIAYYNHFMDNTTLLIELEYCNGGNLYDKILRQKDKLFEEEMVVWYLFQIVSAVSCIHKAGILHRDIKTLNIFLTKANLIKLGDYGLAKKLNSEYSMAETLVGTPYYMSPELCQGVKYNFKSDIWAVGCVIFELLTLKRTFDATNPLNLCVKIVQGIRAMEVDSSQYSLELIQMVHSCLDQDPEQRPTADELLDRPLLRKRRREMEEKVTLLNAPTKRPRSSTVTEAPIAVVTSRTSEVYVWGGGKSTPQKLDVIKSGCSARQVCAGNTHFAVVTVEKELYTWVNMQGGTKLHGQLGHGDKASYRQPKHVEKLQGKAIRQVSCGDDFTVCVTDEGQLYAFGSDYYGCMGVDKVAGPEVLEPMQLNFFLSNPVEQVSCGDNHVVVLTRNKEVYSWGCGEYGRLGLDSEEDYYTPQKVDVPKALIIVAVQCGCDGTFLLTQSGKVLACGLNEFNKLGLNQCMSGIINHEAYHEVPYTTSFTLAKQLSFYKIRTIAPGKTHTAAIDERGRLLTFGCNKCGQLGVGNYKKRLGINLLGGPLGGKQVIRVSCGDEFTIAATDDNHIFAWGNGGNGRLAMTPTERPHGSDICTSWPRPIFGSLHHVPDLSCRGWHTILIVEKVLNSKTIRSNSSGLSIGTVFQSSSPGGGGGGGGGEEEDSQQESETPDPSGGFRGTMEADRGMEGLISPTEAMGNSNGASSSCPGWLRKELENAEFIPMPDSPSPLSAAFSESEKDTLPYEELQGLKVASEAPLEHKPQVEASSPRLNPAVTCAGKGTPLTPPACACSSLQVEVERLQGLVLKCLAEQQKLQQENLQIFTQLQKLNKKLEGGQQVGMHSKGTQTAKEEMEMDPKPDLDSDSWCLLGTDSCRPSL
human kinome (Homo sapiens, UniProt P42336, E542K), sequence (P42336 whole entry E542K): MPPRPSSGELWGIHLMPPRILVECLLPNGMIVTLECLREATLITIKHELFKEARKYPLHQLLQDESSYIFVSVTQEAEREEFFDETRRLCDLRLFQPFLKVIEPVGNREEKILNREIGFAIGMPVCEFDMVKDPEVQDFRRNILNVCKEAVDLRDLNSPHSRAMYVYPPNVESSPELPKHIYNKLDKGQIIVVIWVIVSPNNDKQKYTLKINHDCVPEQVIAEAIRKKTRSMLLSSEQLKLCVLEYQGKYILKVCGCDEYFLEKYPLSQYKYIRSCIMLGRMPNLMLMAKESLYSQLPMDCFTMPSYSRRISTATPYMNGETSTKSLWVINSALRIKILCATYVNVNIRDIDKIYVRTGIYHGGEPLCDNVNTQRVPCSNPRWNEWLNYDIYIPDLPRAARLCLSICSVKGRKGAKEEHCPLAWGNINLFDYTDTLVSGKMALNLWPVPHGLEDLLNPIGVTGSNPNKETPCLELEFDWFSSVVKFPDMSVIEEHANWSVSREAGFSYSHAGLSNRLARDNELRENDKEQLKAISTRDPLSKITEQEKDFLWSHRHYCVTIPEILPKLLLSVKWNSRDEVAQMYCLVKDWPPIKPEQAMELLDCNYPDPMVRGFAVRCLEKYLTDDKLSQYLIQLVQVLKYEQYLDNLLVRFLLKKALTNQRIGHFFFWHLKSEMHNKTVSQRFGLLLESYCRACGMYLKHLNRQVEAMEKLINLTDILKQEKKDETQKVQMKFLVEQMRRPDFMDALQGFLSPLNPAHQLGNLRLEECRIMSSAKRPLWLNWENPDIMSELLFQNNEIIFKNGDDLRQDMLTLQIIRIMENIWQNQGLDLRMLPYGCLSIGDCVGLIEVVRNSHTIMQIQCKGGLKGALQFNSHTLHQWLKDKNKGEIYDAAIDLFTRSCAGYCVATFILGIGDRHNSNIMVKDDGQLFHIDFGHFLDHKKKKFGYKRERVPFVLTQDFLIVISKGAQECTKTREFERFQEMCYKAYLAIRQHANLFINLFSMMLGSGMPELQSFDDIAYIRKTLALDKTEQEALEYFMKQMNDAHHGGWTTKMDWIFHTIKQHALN

## COc1cc(F)ccc1-c1cc(Nc2cc(CS(C)(=N)=O)ccn2)ncc1F (stereo not drawn) [VIP152]
[1]; CDK4-cyclinD1
  remaining binding at 0.1 µM: 85%
[1]; CDK4-cyclinD3
  remaining binding at 0.1 µM: 92%
[1]; CDK4
  remaining binding at 0.1 µM: 100%
[2]
  remaining binding at 0.1 µM: 59%
[3]; PIK3CA(E542K), 100 nM
  remaining binding at 0.1 µM: 100%
[3]; kinase PIK3CA(E542K) (Entrez PIK3CA), compound concentration 1000 nM
  remaining binding at 1 µM: 100%
[4]
  remaining binding at 0.1 µM: 100%
[5]
  remaining binding at 1 µM: 55%
[6]
  remaining binding at 0.1 µM: 100%
[7]; kinase RSK4(Kin.Dom.1-N-terminal) (Entrez RPS6KA6)
  remaining binding at 1 µM: 94%
[7]; kinase RSK4(Kin.Dom.2-C-terminal) (Entrez RPS6KA6)
  remaining binding at 1 µM: 89%
[8]
  remaining binding at 0.1 µM: 100%
[9]
  remaining binding at 1 µM: 42%
[10]
  remaining binding at 1 µM: 92%
[11]
  remaining binding at 0.1 µM: 61%
[12]; PYK2 (Entrez PTK2B), 100 nM
  remaining binding at 0.1 µM: 100%
[12]; kinase PYK2 (Entrez PTK2B), compound concentration 1000 nM
  remaining binding at 1 µM: 90%
[13]
  remaining binding at 0.1 µM: 100%
[14]
  remaining binding at 1 µM: 92%
[15]
  remaining binding at 1 µM: 86%
[16]
  remaining binding at 0.1 µM: 100%
[17]
  remaining binding at 1 µM: 89%
[18]
  remaining binding at 0.1 µM: 100%
[19]; PRKCD, 100 nM
  remaining binding at 0.1 µM: 100%
[19]; kinase PRKCD (Entrez PRKCD), compound concentration 1000 nM
  remaining binding at 1 µM: 83%
[20]
  remaining binding at 0.1 µM: 100%
[21]
  remaining binding at 0.1 µM: 100%
[22]
  remaining binding at 0.1 µM: 100%
[23]; NEK9, 100 nM
  remaining binding at 0.1 µM: 100%
[23]; kinase NEK9 (Entrez NEK9), compound concentration 1000 nM
  remaining binding at 1 µM: 93%
[24]
  remaining binding at 1 µM: 84%
[25]
  remaining binding at 1 µM: 81%
[26]
  remaining binding at 1 µM: 79%
[27]
  remaining binding at 0.1 µM: 100%
[28]
  remaining binding at 0.1 µM: 94%
[29]
  remaining binding at 0.1 µM: 100%
